# Reference: patent US6482410B1, “Cytotactin derivatives that stimulate attachment and neurite outgrowth, and methods of making same” (The Scripps Research Institute, priority 1994, dated 2002)
# “Also recorded” adds a separate entry of the source. No end group written: not given here.
# Legend:
# [1] = tested on: chicken fibroblast SL29 cells; test: Cell attachment inhibition assay, fibroblasts on CT or CT:GST fusion proteins; format: cell-based; conditions: for inhibition of cell attachment to intact CT: RGD peptides 1 mg/ml, JG22 50 μg/ml, FIG. 2; for effect on cell attachment to CTfg substrate / effect on cell attachment to CTfn3 substrate / effect on cell attachment to CTfn6 substrate: equimolar substrates
# Procedure: In the cell attachment inhibition assay, a single cell suspension was incubated with a potential inhibitor and then allowed to settle for a fixed period of time onto a solid support that has been coated with the different proteins to be tested (Friedlander, et al., J. Cell Biol. 107: 2329-2340 (1988)). After removing the unbound and loosely bound cells by washing, the attachment and morphology of those cells remaining on the dish were analyzed.
# In the cell attachment inhibition assays, cells were incubated with soluble RGD peptides and/or a monoclonal antibody prior to incubation with solid support.
# The inhibitors tested were the RGD-containing soluble peptides, GRGDSP and GRGDTP and the mAb JG22 (Developmental Studies Hybridoma Bank at Department of Pharmacology and Molecular Sciences, Johns Hopkins University School of Medicine, Baltimore, Md.). JG22 is a mouse hybridoma which binds to many types of chicken cells, including fibroblasts and muscle, and is specific to chicken (Greve, et al., J. Cell. Biochem. 18: 221-229 (1982)). JG22 is known to perturb cell attachment to extracellular matrix proteins and disrupts the function of the β1 integrin.
# The cell attachment inhibition assay was performed essentially as described for the cell attachment assay in Example 5.B., but with the following modifications.
# The solid support and cells were prepared as described in Example 5.B. Again, the initial assay was performed using only intact CT for the preparation of the solid support. The inhibitors tested, GRGDSP, GRGDTP, and the mAb JG22, were admixed with separate aliquots of the chicken fibroblast SL29 and DRG cells prior to addition to the solid support containing intact CT. The RGD-containing peptides were added at a final concentration of 1 mg/ml. The mAb JG22 was added at a final concentration of 50 μg/ml. A combination of each of the RGD-containing peptides and mAb JG22 were also incubated with the fibroblast and DRG cells. The cells and potential inhibitors were incubated for 10 minutes at room temperature and then added to the solid support. Fibroblast and DRG cells without inhibitors were also added to the solid support.
# After incubation at 37° C. in 5% CO2 for 1 hour, the solid supports were washed three times in PBS with gentle swirling to remove unattached cells. The cells attached to the solid support were fixed in 1% (v/v) glutaraldehyde in PBS and viewed by phase contrast microscopy. The attached cells were counted using a 10× objective and with an eyepiece reticle. Cells were counted in four fields per adsorbed protein spot. Each protein was tested in three separate spots. The number of cells bound was expressed as the average of the twelve measurements±the standard deviation.
# The cell attachment inhibition assay was repeated as described above but using all of the CT:GST fusion proteins in place of intact CT for the preparation of the solid support as described in Example 1.
# Cell attachment assays were performed essentially as follows. The chicken fibroblast cell line SL29 was grown to confluence in DMEM with 10% FCS and penicillin/streptomycin. The cells were passaged the night before the assay and seeded at a density of 1:2. Cells were harvested in calcium, magnesium free Hank's balanced salt solution (CMF-HBSS) with 20 mM Hepes buffer and 5 mM EDTA added. The cells were then washed in attachment buffer (CMF-HBSS, 10 mM Hepes, 1 mM CaCl2, 1 mM MgCl2, 0.1 mM MnCl2, 2% BSA) three times, counted in a hemocytometer, resuspended to a density of 6×10^5 cells/ml. Dorsal root ganglion (DRG) neurons were prepared for attachment assays as described in Example 5, but were washed and resuspended at a density of 6×10^5 cells/ml in attachment buffer. Inhibitors of attachment were added at this time.
# To some samples GRGDSP (SEQ ID NO 11) or GRGDTP (SEQ ID NO 12) peptide was added at a concentration of 1 mg/ml. […]
# [2] = tested on: dorsal root ganglia (DRG) neurons; test: Two-dimensional neurite outgrowth assay, DRG, 15 hours; format: cell-based, chicken; conditions: DRG neurons
# Procedure: Dorsal root ganglia (DRG) cells or forebrain neurons were prepared for the cell attachment assays as follows. DRG from day 6 chicken embryos or forebrains from day 7 chicken embryos were dissected into HBSS. The tissue was pelleted by centrifugation and resuspended in CMF-HBSS and incubated at 37° C. for 10 minutes. The tissue was pelleted again and resuspended in CMF-HBSS containing 0.08% trypsin and allowed to trypsinize for 20 minutes at 37° C. An equal volume of DMEM/F12, 10% FCS, 20 ng/ml nerve growth factor (NGF) (for DRG cells only), 10 μg/ml gentamycin (10% medium) was added, and the tissue was pelleted and resuspended in 2 ml of the 10% medium. The cells were triturated with a fire-polished Pasteur pipette for 15 strokes, and the cells were washed and resuspended in 10 ml of 10% medium. DRG cells were plated in a 10 cm tissue culture dish and incubated for 1 hour at 37° C. in 5% CO2, to allow for attachment of contaminating fibroblasts.
# After replating, the cells were harvested, pelleted and washed three times in DMEM/F12, 1% fetal calf serum (FCS), 20 ng/ml NGF (for DRG cells only), 10 μg/ml gentamycin (1% medium), and the number of cells determined using a hemocytometer. The DRG were resuspended to a density of 6×10^5 cells/ml in attachment buffer. The neurons were resuspended to a density of 2×10^4 cells/ml in 1% medium and added to substrates and placed at 37° C., 5% CO2 for 15 hours.
# After the growth period, the dishes were gently rinsed with PBS to remove unbound cells, fixed with 1% glutaraldehyde, and viewed by phase contrast microscopy. Ten to forty cells were analyzed for each substrate. Cells were judged as neurite-bearing if the length of the processes was greater than one cell diameter. All cells with neurites were photographed with a 20× objective and total neurite length per neurite-bearing cell was derived from the photographic prints. Percentage of neuronal sprouting was calculated from at least six experiments. Neurite length was calculated from at least three experiments.
# This extensive neurite outgrowth after 40 hours made quantitation of the percentage of neurite-bearing cells and neurite length difficult. To analyze quantitatively the effect of CT/TN fusion proteins on DRG neurite outgrowth, DRG cells were therefore plated at low density on CT/TN or CT/TN fragments and analyzed after 15 hours in culture for the percentage of cells that sprouted neurites greater than one cell diameter and for the everage neurite length per neuron. These conditions enhanced the number of isolated cells and discouraged the cell-cell interactions and fasciculation that occurred in the long-term cultures.
# The proteins used in the neurite outgrowth assays are the same as those used in the cell attachment assays. […] In addition, poly-L-lysine was adsorbed to the solid support. […] Any cells adhering to the solid support were examined for sprouting and neurite length as defined herein.
# Proteins used in the neurite outgrowth assays were prepared as described in Example 5.A.2.
# Dorsal root ganglia (DRG) from day 6 chicken embryos were prepared as described in Example 5.A.4. For the neurite outgrowth assays, the DRG were resuspended at a density of 2×10^4 cells/ml in 1% medium, added to solid support, and placed at 37° C. in 5% CO2 for 15 hours. After the attachment and growth period, the dishes were gently rinsed with PBS to remove unbound cells, fixed with 1% (v/v) glutaraldehyde, and viewed by phase contrast microscopy. Ten to thirty cells were analyzed for each adsorbed protein spot. Cells were judged as neurite-bearing if the length of the processes were greater than one cell diameter. All cells with neurites were photographed with a 40× objective and the total neurite length per neurite-bearing cell was derived from the prints. The percent of cells that were sprouting and the average neurite length was derived from six and three independent experiments, respectively. […]
# type I collagen = conditions: Dedhar et al. 1987; Hynes 1992; cited from earlier work
substance,measurement,setting,value
GRGDTP [GRGDTP],"inhibition of SL29 attachment to CT/TN, further analysis",[1]; 1 mg/ml GRGDTP peptide,33%
same,inhibition of cell attachment to intact CT,[1],70%
same,effect on cell attachment to CTfn5-6 substrate,[1]; inhibitor added before plating,unaffected
same,effect on cell attachment to CTfg substrate,[1]; inhibitor added before plating,unaffected
same,effect on cell attachment to CTfn3 substrate,[1]; inhibitor added before plating,completely inhibited; also recorded: selectively inhibited
same,effect on cell attachment to CTfn6 substrate,[1]; inhibitor added before plating,not effective; also recorded: ineffective
same,effect on neurite outgrowth on CTfn3 or CTfn6 substrates,[2],inhibited neurite outgrowth
same,effect on neurite outgrowth on polylysine-coated substrates,[2],not on polylysine-coated substrates
same,inhibition of cell attachment to collagen I,type I collagen,active inhibitor; also recorded: inhibit binding to collagen I
Gly-Arg-Gly-Asp-Ser-Pro [GRGDSP],inhibition of cell attachment to intact CT,[1],73%
same,effect on cell attachment to CTfg substrate,[1]; inhibitor added before plating,unaffected
same,effect on cell attachment to CTfn3 substrate,[1]; inhibitor added before plating,completely inhibited
same,effect on cell attachment to CTfn6 substrate,[1]; inhibitor added before plating,only partially inhibited; also recorded: could inhibit
same,inhibition of cell attachment to collagen I,type I collagen,far less effective inhibitor; also recorded: had no effect; also recorded: generally has no effect
